Assay: xn = mol fraction of the nth substance listed
Settings: Liquid; for mass density: Vibrating wire densiometer; for viscosity: Vibrating wire viscometry

CCCCCCCCCCCCCCCC [hexadecane] + O=C=O
Settings	mass density [kg/m3]	viscosity [mPa·s]
298.14 K, 21810 kPa, x2 = 0.727	822.6	0.786
298.14 K, 22010 kPa, x2 = 0.727	822.8	0.787
298.14 K, 31030 kPa, x2 = 0.727	831.7	0.861
298.14 K, 41130 kPa, x2 = 0.727	840.7	0.943
298.16 K, 10920 kPa, x2 = 0.069	776.3	3.057
298.16 K, 11130 kPa, x2 = 0.069	776.5	3.075
298.16 K, 21440 kPa, x2 = 0.069	782.8	3.474
298.16 K, 30250 kPa, x2 = 0.069	787.6	3.87
298.18 K, 10440 kPa, x2 = 0.5877	802.3	1.003
298.18 K, 10670 kPa, x2 = 0.5877	802.7	0.998
298.18 K, 20560 kPa, x2 = 0.5877	811.8	1.107
298.18 K, 30070 kPa, x2 = 0.5877	819.7	1.219
298.18 K, 40380 kPa, x2 = 0.5877	827.4	1.344
323.12 K, 21230 kPa, x2 = 0.727	796.3	0.565
323.12 K, 21410 kPa, x2 = 0.727	796.3	0.565
323.12 K, 40330 kPa, x2 = 0.727	817.3	0.679
323.12 K, 60540 kPa, x2 = 0.727	835.2	0.806
323.12 K, 80280 kPa, x2 = 0.727	850.1	0.93
323.12 K, 100230 kPa, x2 = 0.727	863.2	1.064
323.12 K, 119920 kPa, x2 = 0.727	874.7	1.204
323.15 K, 10410 kPa, x2 = 0.069	759.1	1.83
323.15 K, 10420 kPa, x2 = 0.069	759.2	1.827
323.15 K, 10630 kPa, x2 = 0.5877	779	0.704
323.15 K, 10860 kPa, x2 = 0.5877	779.5	0.703
323.15 K, 20230 kPa, x2 = 0.069	765.7	2.061
323.15 K, 20850 kPa, x2 = 0.5877	790.2	0.786
323.15 K, 40110 kPa, x2 = 0.5877	807.6	0.947
323.15 K, 40860 kPa, x2 = 0.069	778.3	2.56
323.15 K, 60100 kPa, x2 = 0.5877	822.7	1.122
323.15 K, 60910 kPa, x2 = 0.069	788.7	3.13
323.15 K, 80840 kPa, x2 = 0.069	798.2	3.755
323.15 K, 99870 kPa, x2 = 0.069	806	4.474
373.08 K, 10380 kPa, x2 = 0.069	726.3	0.927
373.08 K, 12120 kPa, x2 = 0.069	728	0.947
373.08 K, 21470 kPa, x2 = 0.069	735.9	1.048
373.08 K, 26470 kPa, x2 = 0.727	752.5	0.365
373.08 K, 26600 kPa, x2 = 0.727	752.7	0.365
373.08 K, 40330 kPa, x2 = 0.069	749.9	1.263
373.08 K, 40830 kPa, x2 = 0.727	773	0.424
373.08 K, 60000 kPa, x2 = 0.727	794.6	0.503
373.08 K, 60300 kPa, x2 = 0.069	762.5	1.514
373.08 K, 80110 kPa, x2 = 0.727	813.1	0.581
373.08 K, 80560 kPa, x2 = 0.069	773.5	1.794
373.08 K, 99990 kPa, x2 = 0.727	828.7	0.659
373.08 K, 100830 kPa, x2 = 0.069	783.5	2.087
373.08 K, 117640 kPa, x2 = 0.727	840.7	0.735
373.11 K, 20760 kPa, x2 = 0.5877	745.5	0.463
373.11 K, 20790 kPa, x2 = 0.5877	745.5	0.463
373.11 K, 40220 kPa, x2 = 0.5877	768.7	0.564
373.11 K, 60460 kPa, x2 = 0.5877	787.7	0.67
373.11 K, 80240 kPa, x2 = 0.5877	803.1	0.775
423.11 K, 11500 kPa, x2 = 0.069	694.2	0.574
423.11 K, 11890 kPa, x2 = 0.069	694.7	0.576
423.11 K, 21700 kPa, x2 = 0.069	705.2	0.645
423.11 K, 25910 kPa, x2 = 0.5877	708.9	0.328
423.11 K, 25970 kPa, x2 = 0.5877	709.4	0.33
423.11 K, 40190 kPa, x2 = 0.5877	730.3	0.384
423.11 K, 40710 kPa, x2 = 0.069	722.5	0.778
423.11 K, 42080 kPa, x2 = 0.727	730.1	0.296
423.11 K, 42200 kPa, x2 = 0.727	730.3	0.296
423.11 K, 60240 kPa, x2 = 0.5877	753.3	0.462
423.11 K, 60280 kPa, x2 = 0.727	755.6	0.353
423.11 K, 60590 kPa, x2 = 0.069	737.2	0.929
423.11 K, 80390 kPa, x2 = 0.727	777.7	0.412
423.11 K, 80460 kPa, x2 = 0.5877	772	0.537
423.11 K, 80740 kPa, x2 = 0.069	750	1.083
423.11 K, 100360 kPa, x2 = 0.727	795.9	0.471
423.11 K, 100800 kPa, x2 = 0.5877	787.9	0.614
423.11 K, 101550 kPa, x2 = 0.069	761.6	1.253
423.11 K, 118170 kPa, x2 = 0.5877	799.8	0.683
423.11 K, 120210 kPa, x2 = 0.727	811.4	0.529
473.15 K, 43620 kPa, x2 = 0.5877	697.7	0.293
473.15 K, 43720 kPa, x2 = 0.5877	697.7	0.292
473.15 K, 60700 kPa, x2 = 0.5877	720.7	0.343
473.15 K, 80450 kPa, x2 = 0.5877	742	0.402
473.15 K, 100840 kPa, x2 = 0.5877	760.2	0.46
473.15 K, 120610 kPa, x2 = 0.5877	775.2	0.52
473.26 K, 61090 kPa, x2 = 0.727	718.9	0.267
473.26 K, 61330 kPa, x2 = 0.727	719.1	0.268
473.26 K, 80480 kPa, x2 = 0.727	744	0.313
473.26 K, 100590 kPa, x2 = 0.727	765.1	0.36
473.26 K, 120860 kPa, x2 = 0.727	783	0.407

From the NIST ThermoML archive (doi:10.1021/acs.jced.6b00750)
